Reference: patent US11440904B2, “Substituted pyrimidines, pharmaceutical compositions and therapeutic methods thereof” (priority 2017, dated 2022)

Assays:
EGFR wt = EGFR wt (Homo sapiens (Human), UniProt P00533); experiment: 33P ATP HotSpot kinase assay, EGFR wt; type: biochemical; conditions: 10 μM ATP
BTK wt = BTK wt (Homo sapiens (Human), UniProt Q06187); experiment: 33P ATP HotSpot kinase assay, BTK wt; type: biochemical; conditions: 10 μM ATP
Description: (§1) (See, e.g., Ma, et al, 2008 Expert Opin Drug Discov. 3(6): 607-621.)

FAK = FAK (Homo sapiens (Human), UniProt Q05397); experiment: 33P ATP HotSpot kinase assay, FAK; conditions: read-out: IC50 FAK, 10 μM ATP
Sequence of FAK (Q05397 whole entry): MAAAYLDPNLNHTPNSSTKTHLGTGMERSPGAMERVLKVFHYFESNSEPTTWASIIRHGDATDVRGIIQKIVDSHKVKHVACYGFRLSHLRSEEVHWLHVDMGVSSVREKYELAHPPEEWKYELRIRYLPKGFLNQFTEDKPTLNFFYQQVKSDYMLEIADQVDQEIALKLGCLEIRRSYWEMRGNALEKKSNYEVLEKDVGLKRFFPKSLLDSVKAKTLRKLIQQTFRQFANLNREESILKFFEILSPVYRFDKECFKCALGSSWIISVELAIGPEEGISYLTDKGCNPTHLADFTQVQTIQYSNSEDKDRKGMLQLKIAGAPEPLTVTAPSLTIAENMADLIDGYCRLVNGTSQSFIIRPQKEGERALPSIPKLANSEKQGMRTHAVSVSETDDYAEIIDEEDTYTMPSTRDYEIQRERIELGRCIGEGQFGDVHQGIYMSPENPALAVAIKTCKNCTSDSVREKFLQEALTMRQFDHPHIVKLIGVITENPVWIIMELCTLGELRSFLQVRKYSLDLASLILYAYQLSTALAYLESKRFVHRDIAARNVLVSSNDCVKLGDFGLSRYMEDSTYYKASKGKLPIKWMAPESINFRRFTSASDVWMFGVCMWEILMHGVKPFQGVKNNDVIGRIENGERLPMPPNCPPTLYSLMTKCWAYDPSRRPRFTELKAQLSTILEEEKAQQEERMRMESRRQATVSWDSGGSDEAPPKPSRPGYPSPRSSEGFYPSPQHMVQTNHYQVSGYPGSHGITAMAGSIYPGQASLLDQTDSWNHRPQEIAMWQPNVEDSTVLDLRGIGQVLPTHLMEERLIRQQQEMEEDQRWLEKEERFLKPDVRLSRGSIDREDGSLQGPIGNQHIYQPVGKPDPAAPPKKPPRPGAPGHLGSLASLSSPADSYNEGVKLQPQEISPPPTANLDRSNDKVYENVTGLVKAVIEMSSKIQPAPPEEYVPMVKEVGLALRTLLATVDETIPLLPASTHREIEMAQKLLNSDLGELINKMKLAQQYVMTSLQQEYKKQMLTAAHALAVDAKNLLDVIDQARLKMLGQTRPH

EOL-1 cells = experiment: Cancer cell growth inhibition, EOL-1; type: cell-based; conditions: Homo sapiens, EOL1, 72 hr, cell viability
Description: (§2) In order to test certain compounds of Compounds 1 to 24 for cancer cell growth inhibition, a leukemia cancer cell line EOL-1, and triple negative breast cancer cell line MDA-MB-231 was used.
(§3) EOL-1 and MDA-MB-231 cells were cultured in a RPMI-1640 cell culture medium supplemented with 10% fetal bovine serum (FBS) and 1% penicillin/streptomycin (Gibco BRL).
(§4) The cancer cell lines stored in a liquid nitrogen tank were each quickly thawed at 37° C. water bath, and centrifuged to remove the DMSO in the freezing medium. The resulting cell pellet was mixed with a culture medium, incubated in a culture flask at 37° C. under 5% CO2 for 2 to 3 days. The EOL-1 cells were sub-cultured by 1:5˜10 dilution in fresh culture medium. For MD-MB-231 cells, the culture medium was removed and the remaining cells were washed with PBS (Phosphate Buffered Saline) and trypsinized by trypsin-EDTA. The detached cells were sub-cultured by 1:5˜10 dilution in fresh culture medium.
(§5) For the cell growth inhibition assay, the cells were seeded in 96-well cell culture plates at 5×10^4 cells/well for EOL-1 and 5×10^3 cells/well for MDA-MB-231 cells in 50 μL and incubated at 37° C. under 5% CO2 for 3 to 6 hr. before the compounds were added.
(§6) Certain compounds of Compounds 1-24 were dissolved in dimethylsulfoxide (DMSO) to a concentration of 10 mM. The DMSO solution containing test compound was diluted with a culture medium to a final concentration of 600 μM, and then diluted 100 times to 6 μM as top dose followed by 1:3 serial dilutions, and then add 50 μL diluted compounds to the 50 μL cells, with a final top dose at 3 μM and the plate was incubated at 37° C. under 5% CO2 for 72 hr. The cell viability was determined by Cell Meter™ Fluorimetric Cell Cytotoxicity Assay Kit (AAT Bioquest) according to the manufacturer's instructions. Briefly, thaw and warm up the Assay Solution (Component A) to 37° C., and mix it thoroughly. Add 20 μL/well (96-well plate) of Assay Solution (Component A). Mix the reagents by shaking the plate gently for 30 seconds. Incubate the cells in a 37° C., 5% CO2 incubator for 1-24 hr., protected from light. Monitor the fluorescence intensity (bottom read) at Ex/Em=540/590 nm. Alternatively, read the O.D. at 570 nm (the reference wavelength should be 600 nm) to determine the cell viability in each well.

BMX = BMX (Homo sapiens (Human), UniProt P51813); experiment: 33P ATP HotSpot kinase assay, BMX; type: biochemical; conditions: 10 μM ATP
Sequence of BMX (P51813 whole entry): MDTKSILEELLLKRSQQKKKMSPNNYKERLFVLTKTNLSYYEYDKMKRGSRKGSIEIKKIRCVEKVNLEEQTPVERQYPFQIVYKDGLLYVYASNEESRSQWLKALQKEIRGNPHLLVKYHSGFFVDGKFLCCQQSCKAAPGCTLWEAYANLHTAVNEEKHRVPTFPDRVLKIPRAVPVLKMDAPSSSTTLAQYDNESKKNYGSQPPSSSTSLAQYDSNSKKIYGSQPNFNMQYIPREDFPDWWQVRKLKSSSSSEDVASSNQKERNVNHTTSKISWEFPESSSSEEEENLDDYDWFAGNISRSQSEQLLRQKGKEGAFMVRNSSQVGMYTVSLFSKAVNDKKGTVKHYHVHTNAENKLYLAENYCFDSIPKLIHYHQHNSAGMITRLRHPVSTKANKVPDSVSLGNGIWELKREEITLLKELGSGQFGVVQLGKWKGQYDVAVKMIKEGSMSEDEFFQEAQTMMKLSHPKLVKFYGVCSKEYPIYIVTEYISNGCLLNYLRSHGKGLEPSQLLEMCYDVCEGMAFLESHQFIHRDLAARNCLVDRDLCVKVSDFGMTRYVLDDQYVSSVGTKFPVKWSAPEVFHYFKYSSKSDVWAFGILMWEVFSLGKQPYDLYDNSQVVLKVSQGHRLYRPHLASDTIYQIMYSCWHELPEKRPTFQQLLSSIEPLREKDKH
Description: as §1
(§7) Each of Compound-1 to Compound-24 was measured for its inhibitory activity on TEC family kinases, BMX and ITK. The measurement was carried out in the same process as described above, BMX, ITK enzymes were used.

MDA-MB-231 cells = experiment: Cancer cell growth inhibition, MDA-MB-231; type: cell-based; conditions: Homo sapiens, 72 hr, cell viability
Description: as §2, §3, §4, §5, §6

[1] = molecular target: BTK phosphorylation at tyrosine 223 (Homo sapiens (Human), UniProt Q06187); experiment: Immunoblot analysis of phospho-BTK(Y223) in Ramos cells; type: cell-based; conditions: 1 hr treatment, anti-IgM stimulation, western blot
Sequence of BTK phosphorylation at tyrosine 223 (Q06187 whole entry): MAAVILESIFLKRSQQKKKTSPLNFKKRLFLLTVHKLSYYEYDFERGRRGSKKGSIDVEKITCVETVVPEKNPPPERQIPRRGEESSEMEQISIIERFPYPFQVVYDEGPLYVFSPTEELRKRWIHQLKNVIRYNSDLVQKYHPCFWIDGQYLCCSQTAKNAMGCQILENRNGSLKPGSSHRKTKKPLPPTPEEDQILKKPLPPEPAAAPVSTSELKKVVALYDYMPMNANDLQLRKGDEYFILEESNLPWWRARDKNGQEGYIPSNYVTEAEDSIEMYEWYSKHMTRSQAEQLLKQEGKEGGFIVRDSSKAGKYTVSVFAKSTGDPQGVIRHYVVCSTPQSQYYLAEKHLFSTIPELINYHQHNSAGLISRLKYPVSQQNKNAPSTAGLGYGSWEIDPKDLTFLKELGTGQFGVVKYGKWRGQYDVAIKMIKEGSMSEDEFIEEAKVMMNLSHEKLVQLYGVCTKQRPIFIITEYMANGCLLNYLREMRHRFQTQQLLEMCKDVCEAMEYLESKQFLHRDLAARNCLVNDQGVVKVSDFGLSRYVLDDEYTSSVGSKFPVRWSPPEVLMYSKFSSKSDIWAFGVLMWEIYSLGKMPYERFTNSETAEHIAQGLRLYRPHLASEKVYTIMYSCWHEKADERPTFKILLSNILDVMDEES
Description: Ramos cells were cultured in RPMI-1640 medium with 10% fetal bovine serum (FBS) and 1% penicillin/streptomycin (Gibco BRL). Before the assay, Ramos cells were counted and seeded at 1×10^6 cells/mL, cultured overnight in RPMI-1640 medium with 10% FBS, the cells were centrifuged at 950 rpm for 10 min., then 1˜2×10^6 cells were split into each tube in 300 μL medium. The cells were treated with certain compounds of Compound 1-24 at 0˜3 μM for 1 hr. in 37° C., then the cells were stimulated with 10 μg/mL of anti-IgM (BioLegend) for 5 min., followed by 3 min. spin at 2000 rpm. After aspirating the supernatant, 60 μL of RIPA lysis buffer (50 mM Tris-HCl, 1 mM EDTA, 1% NP-40, 0.5% sodium deoxycholate, and 0.1% SDS, pH 7.4, 150 mM NaCl, 1 mM Na3VO4) was added to the cell pellet to lyse the cells on ice for 30 min. After spin at 10,000 rpm for 5 min., 60 μL of the cell lysate was transferred to a fresh tube, and 20 μL of 4× LDS buffer was added to the tube. The samples were boiled on a 100° C. heat block for 10 min. 25 μL lysate was loaded on to SDS-PAGE gel (NuPAGE™ Novex™ 4-12% Bis-Tris Midi Protein Gels, cat. no. WG1402BOX, ThermoFisher) for western blotting analysis per the manufacturer's instructions. Antibodies used for immunoblot analysis include Btk and p-Btk(Y223) (cat. no. 3553 and 5082; Cell Signaling Technology, Beverly, Mass.). p-Btk(Y223) (cat. no. GTX61791; GeneTex, Inc., Irvine, Calif.). Membranes were detected using infrared fluorescence dye (IRDye® 800CW Donkey anti-Rabbit IgG (H+L), cat. no. P/N 925-32213; IRDye® 680RD Donkey anti-Mouse IgG (H+L), cat. no. P/N 925-68072 and scanned on a LiCor Odyssey scanner (LiCor Biosciences, Lincoln, Nebr.).

ITK = ITK (Homo sapiens (Human), UniProt Q08881); experiment: 33P ATP HotSpot kinase assay, ITK; type: biochemical; conditions: 10 μM ATP
Sequence of ITK (Q08881 whole entry): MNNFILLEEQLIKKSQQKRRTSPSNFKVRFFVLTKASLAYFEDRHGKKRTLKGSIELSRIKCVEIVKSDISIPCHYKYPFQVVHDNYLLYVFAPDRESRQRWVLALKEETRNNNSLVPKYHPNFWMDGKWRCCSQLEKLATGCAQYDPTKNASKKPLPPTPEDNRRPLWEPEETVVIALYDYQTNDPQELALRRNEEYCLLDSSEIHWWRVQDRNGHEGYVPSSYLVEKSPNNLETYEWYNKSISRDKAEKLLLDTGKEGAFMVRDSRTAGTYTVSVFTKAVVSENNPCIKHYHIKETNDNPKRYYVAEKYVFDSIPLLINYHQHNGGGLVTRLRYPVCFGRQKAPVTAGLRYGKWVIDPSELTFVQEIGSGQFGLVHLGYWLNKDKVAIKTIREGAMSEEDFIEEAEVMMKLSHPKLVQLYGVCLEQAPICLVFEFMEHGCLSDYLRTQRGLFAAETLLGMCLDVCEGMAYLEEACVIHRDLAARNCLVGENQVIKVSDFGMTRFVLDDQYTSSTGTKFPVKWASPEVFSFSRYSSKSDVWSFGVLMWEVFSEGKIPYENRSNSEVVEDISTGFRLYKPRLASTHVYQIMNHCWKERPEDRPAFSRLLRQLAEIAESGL
Description: as §1, §7

[2] = test system: ERK phosphorylation at T202/Y204; experiment: Cell-based ERK1/2 (T202/Y204) phosphorylation ELISA in EOL-1 cells; conditions: 3 hr or 15 hr treatment, read-out: EC50 phospho-ERK1/2 (T202/Y204)
Description: EOL-1 cells were cultured in RPMI-1640 medium with 10% fetal bovine serum (FBS) and 1% penicillin/streptomycin (Gibco BRL). Before the assay, EOL-1 cells were counted and seeded at 1×10^6 cells/well in a 6-well plate, cultured overnight in RPMI-1640 medium with 10% FBS. The cells were treated with certain compounds of Compounds 1-24 at 0˜3 μM for 3 hr. or 15 hr. at 37° C., then the cells were harvested, followed by 5 min. spin at 2000 rpm. After aspirating the supernatant, the cells were washed with cold PBS, span again, then 100 μL of RIPA lysis buffer (50 mM Tris-HCl, 1 mM EDTA, 1% NP-40, 0.5% sodium deoxycholate, and 0.1% SDS, pH 7.4, 150 mM NaCl, 1 mM Na3VO4) was added to the cell pellet to lyse the cells on ice for 30 min. After spin at 12,000 rpm for 5 min., 90 μL of the cell lysate was transferred to a fresh tube.
For an enzyme-linked immunosorbent assay (ELISA) assay, 10 μL of the lysate was used for p-ERK1/2 (T202/Y204) elisa assay. ELISA was done using the ERK 1/2 (pT202/Y204 +Total) ELISA Kit (Abcam, ab176660) according to the manufacturer's instructions. Specifically, add 50 μL of all samples or standards to appropriate wells. Add 50 μL of the Antibody Cocktail to each well. Seal the plate and incubate for 1 hr. at r.t. on a plate shaker set to 400 rpm. Wash each well with 3×350 μL 1× Wash Buffer PT. […] This is an endpoint reading.

ERK1 kinase = ERK1 kinase (Homo sapiens (Human), UniProt P27361); experiment: 33P ATP HotSpot kinase assay, ERK1; type: biochemical; conditions: 10 μM ATP
Sequence of ERK1 kinase (P27361 whole entry): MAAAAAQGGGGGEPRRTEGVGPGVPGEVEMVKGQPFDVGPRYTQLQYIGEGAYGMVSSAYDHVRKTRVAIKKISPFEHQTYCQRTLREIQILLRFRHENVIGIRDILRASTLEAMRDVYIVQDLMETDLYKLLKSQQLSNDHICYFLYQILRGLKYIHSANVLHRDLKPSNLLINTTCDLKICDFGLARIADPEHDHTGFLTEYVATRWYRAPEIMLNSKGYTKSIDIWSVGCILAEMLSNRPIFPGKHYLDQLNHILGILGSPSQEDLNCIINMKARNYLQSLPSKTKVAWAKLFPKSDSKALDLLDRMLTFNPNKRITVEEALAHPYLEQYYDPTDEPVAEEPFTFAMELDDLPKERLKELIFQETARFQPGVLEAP
Description: as §1
Certain compounds of Compound-1 to Compound-24 were measured for its inhibitory activity on ERK1 kinase. The measurement was carried out in the same process as described above, ERK enzyme was used.

[3] = molecular target: FAK phosphorylation at tyrosine 397 (Homo sapiens (Human), UniProt Q05397); experiment: Cell-based FAK(Y397) phosphorylation ELISA in PC3 cells; conditions: 1 hr treatment, read-out: EC50 phospho-FAK(Y397)
Sequence of FAK phosphorylation at tyrosine 397 (Q05397 whole entry): as the sequence (Q05397 whole entry) above

Sequence of EGFR wt (P00533 25-1210): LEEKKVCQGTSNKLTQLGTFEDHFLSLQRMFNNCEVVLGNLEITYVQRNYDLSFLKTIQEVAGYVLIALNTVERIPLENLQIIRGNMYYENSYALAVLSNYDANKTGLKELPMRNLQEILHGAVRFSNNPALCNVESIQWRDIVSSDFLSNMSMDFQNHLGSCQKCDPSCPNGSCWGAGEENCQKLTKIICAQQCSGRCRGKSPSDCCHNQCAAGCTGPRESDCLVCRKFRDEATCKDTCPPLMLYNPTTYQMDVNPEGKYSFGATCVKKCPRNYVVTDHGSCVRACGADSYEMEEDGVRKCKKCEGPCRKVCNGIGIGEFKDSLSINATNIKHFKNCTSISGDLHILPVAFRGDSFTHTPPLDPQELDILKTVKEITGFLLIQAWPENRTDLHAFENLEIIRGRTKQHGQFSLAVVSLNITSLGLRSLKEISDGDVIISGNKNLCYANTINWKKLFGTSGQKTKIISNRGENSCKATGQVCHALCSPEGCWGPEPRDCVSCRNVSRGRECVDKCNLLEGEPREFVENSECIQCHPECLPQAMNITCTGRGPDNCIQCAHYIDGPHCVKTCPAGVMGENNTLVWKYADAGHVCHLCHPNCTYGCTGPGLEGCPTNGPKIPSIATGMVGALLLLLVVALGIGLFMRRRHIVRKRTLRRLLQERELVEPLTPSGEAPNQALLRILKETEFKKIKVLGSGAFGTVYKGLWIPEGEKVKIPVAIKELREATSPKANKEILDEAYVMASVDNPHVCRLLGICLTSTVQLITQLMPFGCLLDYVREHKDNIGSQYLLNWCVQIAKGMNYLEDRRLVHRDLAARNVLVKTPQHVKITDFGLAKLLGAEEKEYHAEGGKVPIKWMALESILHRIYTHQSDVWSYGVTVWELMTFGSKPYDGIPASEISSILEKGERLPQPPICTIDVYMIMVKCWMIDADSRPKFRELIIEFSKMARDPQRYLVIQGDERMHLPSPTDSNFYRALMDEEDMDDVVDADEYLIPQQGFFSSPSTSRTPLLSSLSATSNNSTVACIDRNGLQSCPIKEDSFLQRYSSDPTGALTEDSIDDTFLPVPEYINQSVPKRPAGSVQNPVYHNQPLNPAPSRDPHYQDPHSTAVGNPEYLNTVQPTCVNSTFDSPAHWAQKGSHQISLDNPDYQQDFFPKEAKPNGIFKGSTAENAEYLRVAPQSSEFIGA
Sequence of BTK wt (Q06187 whole entry): as the sequence (Q06187 whole entry) above

IC50 (EGFR wt) [nM] | IC50 (BTK wt) [nM] | IC50 (FAK) [nM] | IC50 (EOL-1 cells) [nM] | IC50 (BMX) [nM] | IC50 (MDA-MB-231 cells) [nM] | EC50 [1] [nM] | IC50 (ITK) [nM] | EC50 [2] [nM] | IC50 (ERK1 kinase) [nM] | EC50 [3] [nM] | SMILES
> 1000 | 73.4 | > 1000 | 2000 | 8.46 | > 3000 | 100 to 1000 | > 1000 |  |  |  | C=CC(=O)N1CCC[C@@H](Nc2nc(Nc3ccc4c(c3)OCCOCCOCCO4)ncc2F)C1 [Compound-2, 1-[(3R)-3-[[5-fluoro-2-(2,5,8,11-tetraoxabicyclo[10.4.0]hexadeca-1(12),13,15-trien-14-ylamino)pyrimidin-4-yl]amino]-1-piperidyl]prop-2-en-1-one]
345 | 3.17 | 1240 | > 3000 | 1.69 | > 3000 | < 100 | 39.6 |  |  |  | C=CC(=O)N1CCC[C@@H](Nc2nc(Nc3ccc4c(c3)OCCOCCOCCO4)nc3[nH]cnc23)C1 [Compound-3, 1-[(3R)-3-[[2-(2,5,8,11-tetraoxabicyclo[10.4.0]hexadeca-1(12),13,15-trien-14-ylamino)-9H-purin-6-yl]amino]-1-piperidyl]prop-2-en-1-one]
> 100 | < 100 | > 100 | 1900 | < 100 | 3000 | < 100 | < 100 |  |  |  | C=CC(=O)Nc1cccc(Nc2nc(Nc3ccc(OCCCOC4(CC)OCC(C)(C)CO4)cc3)ncc2F)c1 [Compound-5, N-[3-[[2-[4-[3-[(2-ethyl-5,5-dimethyl-1,3-dioxan-2yl)oxy]propoxy]anilino]-5-fluoro-pyrimidin-4-yl]amino]phenyl]prop-2-enamide]
208 | 0.65 | 274 | 2500 | 0.41 | > 3000 | < 100 | 1.35 |  |  |  | C=CC(=O)Nc1cccc(Nc2nc(Nc3ccc4c(c3)OCCOCCOCCO4)nc3[nH]cnc23)c1 [Compound-7, N-[3-[[2-(2,5,8,11-tetraoxabicyclo[10.4.0]hexadeca-1(12),13,15-trien-14-ylamino)-9H-purin-6-yl]amino]phenyl]prop-2-enamide]
> 100 | < 100 | > 100 |  | > 100 |  | 100 to 1000 | > 100 |  |  |  | C=CC(=O)Nc1ccccc1Nc1nc(Nc2ccc3c(c2)OCCOCCOCCO3)ncc1F [Compound-10, N-[2-[[5-fluoro-2-(2,5,8,11-tetraoxabicyclo[10.4.0]hexadeca-1(12),13,15-trien-14-ylamino)pyrimidin-4-yl]amino]phenyl]prop-2-enamide]
> 1000 | 4.36 | 24.6 | 2400 | 2.7 | > 3000 | 100 to 1000 | 447 | 1000 to 3000 | 714 |  | CCC(=O)Nc1ccccc1Nc1nc(Nc2ccc3c(c2)OCCOCCOCCO3)nc2[nH]cnc12 [Compound-12, N-[2-[[2-(2,5,8,11-tetraoxabicyclo[10.4.0]hexadeca-1(12),13,15-trien-14-ylamino)-9H-purin-6-yl]amino]phenyl]propanamide]
> 1000 | 68.2 | 13.4 | 350 |  | 2500 |  |  |  |  | 100 to 1000 | CN([C@@H]1CCC[C@H]1Oc1nc(Nc2ccc3c(c2)OCCOCCOCCO3)nc2[nH]ncc12)S(C)(=O)=O [Compound-19, N-methyl-N-[(1R,2R)-2-[[6-(2,5,8,11-tetraoxabicyclo[10.4.0]hexadeca-1(16),12,14-trien-14-ylamino)-1H-pyrazolo[3,4-d]pyrimidin-4-yl]oxy]cyclopentyl]methanesulfonamide]
> 1000 | > 1000 | 29.4 | 2250 |  | > 3000 |  |  |  |  | 100 to 1000 | CN(c1cnccc1CNc1nc(Nc2ccc3c(c2)OCCOCCOCCO3)nc2[nH]ccc12)S(C)(=O)=O [Compound-20, N-methyl-N-[4-[[[2-(2,5,8,11-tetraoxabicyclo[10.4.0]hexadeca-1(16),12,14-trien-14-ylamino)-7H-pyrrolo[2,3-d]pyrimidin-4-yl]amino]methyl]-3-pyridyl]methanesulfonamide]
